Values quoted from earlier work, collected in US6995149B1, “Contraceptive process and kit for female mammals, comprising a combination of gestagen and oestrogen” (Schering AG, priority 1995, dated 2006).

Tests used:
[1] = system: women; conditions: daily dose of 70 to 80 μg, pure gestagen preparation; in almost all women
[2] = very small doses; ovulation is not always inhibited

C#C[C@]1(O)CC[C@H]2[C@@H]3CCC4=CC(=O)CC[C@@H]4[C@H]3C(=C)C[C@@]21CC [3-ketodesogestrel]
inhibition of ovulation [1]: In almost all women, these dosages cause inhibition of ovulation

C#C[C@]1(O)CC[C@H]2[C@@H]3CCC4=CCCC[C@@H]4[C@H]3C(=C)C[C@@]21CC [desogestrel]
inhibition of ovulation [1]: In almost all women, these dosages cause inhibition of ovulation

CC(=O)O[C@]1(C(C)=O)CC[C@H]2[C@@H]3C=C(Cl)C4=CC(=O)CC[C@]4(C)[C@H]3CC[C@@]21C [chloromadinone acetate]
contraceptive protection [2]: afforded contraceptive protection
